Among the data in ChEMBL document CHEMBL5678810 are inhibition values, retold here.

Test [1] has as its target Serine/threonine-protein kinase 32C (Homo sapiens) (UniProt Q86UX6). The test can be described thus: Inhibition of T7 bacteriophage fused human YANK3 at 10 uM by KINOMEscan analysis relative to control.
Test [2] deals with Vascular endothelial growth factor receptor 2 (Homo sapiens) (UniProt P35968). Briefly: Inhibition of T7 bacteriophage fused human VEGFR2 at 10 uM by KINOMEscan analysis relative to control.
Test [3] deals with Tyrosine-protein kinase SYK (Homo sapiens) (UniProt P43405). The test can be described thus: Inhibition of T7 bacteriophage fused human SYK at 10 uM by KINOMEscan analysis relative to control.
Test [4] concerns the target T1, Mitogen-activated protein kinase kinase kinase 7 (Homo sapiens) (UniProt O43318).
T1 sequence (whole entry): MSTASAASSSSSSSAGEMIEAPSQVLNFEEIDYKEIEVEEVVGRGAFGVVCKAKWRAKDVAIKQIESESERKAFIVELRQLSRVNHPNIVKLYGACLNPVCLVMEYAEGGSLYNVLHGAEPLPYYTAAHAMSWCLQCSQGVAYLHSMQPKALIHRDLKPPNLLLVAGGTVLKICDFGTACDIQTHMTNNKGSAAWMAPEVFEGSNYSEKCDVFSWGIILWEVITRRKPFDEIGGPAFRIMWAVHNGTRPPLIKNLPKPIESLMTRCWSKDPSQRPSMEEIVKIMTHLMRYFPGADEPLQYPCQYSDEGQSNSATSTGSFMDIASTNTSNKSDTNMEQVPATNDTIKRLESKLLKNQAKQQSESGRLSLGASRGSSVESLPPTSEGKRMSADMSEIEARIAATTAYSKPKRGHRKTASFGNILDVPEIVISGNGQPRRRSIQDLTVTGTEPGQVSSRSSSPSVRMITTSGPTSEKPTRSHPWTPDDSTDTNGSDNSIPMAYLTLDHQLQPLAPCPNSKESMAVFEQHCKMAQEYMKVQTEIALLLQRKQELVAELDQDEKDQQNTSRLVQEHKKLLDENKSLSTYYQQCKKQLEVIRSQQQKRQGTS
Briefly: Inhibition of T7 bacteriophage fused human TAK1 at 10 uM by KINOMEscan analysis relative to control.

Test [5] has as its target T2, Tyrosine-protein kinase receptor TYRO3 (Homo sapiens) (UniProt Q06418).
T2 sequence (whole entry): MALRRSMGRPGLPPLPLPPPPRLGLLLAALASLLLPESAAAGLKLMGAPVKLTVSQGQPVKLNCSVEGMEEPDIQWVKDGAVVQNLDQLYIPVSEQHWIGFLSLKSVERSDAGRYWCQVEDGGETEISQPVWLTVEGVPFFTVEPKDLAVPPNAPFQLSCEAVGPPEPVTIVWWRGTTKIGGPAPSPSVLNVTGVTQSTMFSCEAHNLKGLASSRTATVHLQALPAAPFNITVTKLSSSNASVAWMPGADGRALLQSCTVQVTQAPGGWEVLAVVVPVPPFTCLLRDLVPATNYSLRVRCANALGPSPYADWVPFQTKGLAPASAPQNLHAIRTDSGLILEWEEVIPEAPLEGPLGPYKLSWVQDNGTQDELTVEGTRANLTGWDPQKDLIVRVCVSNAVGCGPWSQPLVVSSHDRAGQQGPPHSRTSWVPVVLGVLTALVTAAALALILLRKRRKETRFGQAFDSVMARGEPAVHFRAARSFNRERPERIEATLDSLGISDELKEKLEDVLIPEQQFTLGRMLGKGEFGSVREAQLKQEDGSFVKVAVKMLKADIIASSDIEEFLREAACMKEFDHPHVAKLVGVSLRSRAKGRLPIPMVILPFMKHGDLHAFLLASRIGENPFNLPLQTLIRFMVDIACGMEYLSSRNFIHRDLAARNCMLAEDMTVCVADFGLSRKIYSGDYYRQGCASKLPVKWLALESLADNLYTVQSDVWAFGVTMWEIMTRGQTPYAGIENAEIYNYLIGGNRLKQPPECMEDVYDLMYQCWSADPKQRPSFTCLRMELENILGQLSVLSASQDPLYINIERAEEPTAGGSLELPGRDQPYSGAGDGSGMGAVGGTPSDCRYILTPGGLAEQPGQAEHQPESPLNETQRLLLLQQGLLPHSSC
The test can be described thus: Inhibition of T7 bacteriophage fused human TYRO3 at 10 uM by KINOMEscan analysis relative to control.

For test [6], the target named is Dual specificity testis-specific protein kinase 1 (Homo sapiens) (UniProt Q15569). Briefly: Inhibition of T7 bacteriophage fused human TESK1 at 10 uM by KINOMEscan analysis relative to control.
In test [7] the target is T3, Serine/threonine-protein kinase ULK1 (Homo sapiens) (UniProt O75385).
T3 sequence (whole entry): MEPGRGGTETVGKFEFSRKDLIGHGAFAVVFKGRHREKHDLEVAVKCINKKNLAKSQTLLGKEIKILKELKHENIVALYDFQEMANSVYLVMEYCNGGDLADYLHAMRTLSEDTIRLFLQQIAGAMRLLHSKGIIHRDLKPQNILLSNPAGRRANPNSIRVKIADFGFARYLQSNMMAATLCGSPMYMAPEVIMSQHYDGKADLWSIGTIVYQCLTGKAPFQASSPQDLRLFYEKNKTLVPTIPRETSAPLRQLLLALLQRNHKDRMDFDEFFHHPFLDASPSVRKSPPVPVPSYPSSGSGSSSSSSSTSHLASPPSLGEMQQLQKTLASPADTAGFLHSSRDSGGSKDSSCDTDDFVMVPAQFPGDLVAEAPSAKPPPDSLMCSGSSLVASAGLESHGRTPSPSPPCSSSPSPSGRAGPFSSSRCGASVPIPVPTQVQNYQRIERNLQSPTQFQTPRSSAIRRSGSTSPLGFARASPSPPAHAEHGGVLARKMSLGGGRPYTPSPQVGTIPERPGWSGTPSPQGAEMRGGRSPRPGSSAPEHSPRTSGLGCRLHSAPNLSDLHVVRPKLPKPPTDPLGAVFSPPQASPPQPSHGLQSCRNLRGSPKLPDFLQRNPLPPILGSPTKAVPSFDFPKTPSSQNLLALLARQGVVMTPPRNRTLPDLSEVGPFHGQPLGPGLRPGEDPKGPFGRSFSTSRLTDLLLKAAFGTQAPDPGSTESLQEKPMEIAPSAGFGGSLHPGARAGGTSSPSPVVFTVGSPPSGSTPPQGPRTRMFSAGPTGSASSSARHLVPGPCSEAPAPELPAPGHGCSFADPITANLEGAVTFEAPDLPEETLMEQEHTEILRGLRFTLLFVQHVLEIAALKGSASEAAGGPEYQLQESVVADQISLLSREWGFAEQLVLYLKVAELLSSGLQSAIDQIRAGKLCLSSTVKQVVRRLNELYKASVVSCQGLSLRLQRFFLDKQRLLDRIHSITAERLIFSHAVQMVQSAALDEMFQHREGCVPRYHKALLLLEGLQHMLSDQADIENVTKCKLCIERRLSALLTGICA
The test can be described thus: Inhibition of T7 bacteriophage fused human ULK1 at 10 uM by KINOMEscan analysis relative to control.

Test [8] deals with Activated CDC42 kinase 1 (Homo sapiens) (UniProt Q07912). The test can be described thus: Inhibition of T7 bacteriophage fused human TNK2 at 10 uM by KINOMEscan analysis relative to control.
Activated CDC42 kinase 1 (Homo sapiens), sequence (Q07912 whole entry, looked up, the tested form may be a part): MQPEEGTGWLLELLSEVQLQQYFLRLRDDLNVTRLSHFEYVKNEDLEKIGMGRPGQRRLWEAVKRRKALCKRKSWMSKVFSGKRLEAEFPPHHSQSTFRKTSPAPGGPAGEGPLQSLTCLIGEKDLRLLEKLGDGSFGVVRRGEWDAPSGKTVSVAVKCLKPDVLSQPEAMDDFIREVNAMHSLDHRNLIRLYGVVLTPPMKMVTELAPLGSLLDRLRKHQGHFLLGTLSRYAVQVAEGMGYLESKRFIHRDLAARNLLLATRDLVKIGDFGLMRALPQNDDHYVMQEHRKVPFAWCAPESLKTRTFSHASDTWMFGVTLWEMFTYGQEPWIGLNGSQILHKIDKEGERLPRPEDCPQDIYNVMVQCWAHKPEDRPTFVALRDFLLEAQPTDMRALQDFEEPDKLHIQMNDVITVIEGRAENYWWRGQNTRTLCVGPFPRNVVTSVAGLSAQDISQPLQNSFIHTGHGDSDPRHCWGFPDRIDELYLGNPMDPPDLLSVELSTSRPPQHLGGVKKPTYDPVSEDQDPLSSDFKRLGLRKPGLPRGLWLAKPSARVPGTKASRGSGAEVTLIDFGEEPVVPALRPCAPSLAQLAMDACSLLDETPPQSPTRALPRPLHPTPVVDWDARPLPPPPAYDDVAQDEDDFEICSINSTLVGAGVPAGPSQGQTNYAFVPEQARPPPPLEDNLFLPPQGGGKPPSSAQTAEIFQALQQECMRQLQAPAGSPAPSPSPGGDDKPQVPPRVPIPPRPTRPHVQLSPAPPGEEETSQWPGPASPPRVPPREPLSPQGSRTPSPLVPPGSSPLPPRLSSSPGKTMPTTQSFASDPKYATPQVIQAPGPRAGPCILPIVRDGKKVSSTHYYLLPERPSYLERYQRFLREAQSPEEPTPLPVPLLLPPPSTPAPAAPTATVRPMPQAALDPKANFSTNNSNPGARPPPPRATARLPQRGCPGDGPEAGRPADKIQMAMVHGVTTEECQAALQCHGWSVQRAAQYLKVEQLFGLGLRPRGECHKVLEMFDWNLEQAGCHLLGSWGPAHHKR

Serine/threonine-protein kinase 32C (Homo sapiens), sequence (Q86UX6 whole entry, the tested form may be a part): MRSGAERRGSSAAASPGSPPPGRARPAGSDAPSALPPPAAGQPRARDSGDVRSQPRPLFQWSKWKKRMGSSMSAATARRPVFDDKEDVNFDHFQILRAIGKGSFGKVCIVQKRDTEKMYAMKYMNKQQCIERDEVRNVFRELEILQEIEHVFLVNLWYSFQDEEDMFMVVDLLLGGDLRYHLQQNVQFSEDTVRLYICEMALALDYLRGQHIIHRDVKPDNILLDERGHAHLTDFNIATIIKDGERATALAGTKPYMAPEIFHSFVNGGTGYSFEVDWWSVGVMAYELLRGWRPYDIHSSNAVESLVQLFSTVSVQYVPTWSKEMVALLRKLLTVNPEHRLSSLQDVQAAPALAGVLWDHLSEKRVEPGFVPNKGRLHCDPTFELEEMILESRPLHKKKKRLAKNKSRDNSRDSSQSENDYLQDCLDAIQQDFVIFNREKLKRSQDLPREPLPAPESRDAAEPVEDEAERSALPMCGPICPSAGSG
Vascular endothelial growth factor receptor 2 (Homo sapiens), sequence (P35968 whole entry, the tested form may be a part): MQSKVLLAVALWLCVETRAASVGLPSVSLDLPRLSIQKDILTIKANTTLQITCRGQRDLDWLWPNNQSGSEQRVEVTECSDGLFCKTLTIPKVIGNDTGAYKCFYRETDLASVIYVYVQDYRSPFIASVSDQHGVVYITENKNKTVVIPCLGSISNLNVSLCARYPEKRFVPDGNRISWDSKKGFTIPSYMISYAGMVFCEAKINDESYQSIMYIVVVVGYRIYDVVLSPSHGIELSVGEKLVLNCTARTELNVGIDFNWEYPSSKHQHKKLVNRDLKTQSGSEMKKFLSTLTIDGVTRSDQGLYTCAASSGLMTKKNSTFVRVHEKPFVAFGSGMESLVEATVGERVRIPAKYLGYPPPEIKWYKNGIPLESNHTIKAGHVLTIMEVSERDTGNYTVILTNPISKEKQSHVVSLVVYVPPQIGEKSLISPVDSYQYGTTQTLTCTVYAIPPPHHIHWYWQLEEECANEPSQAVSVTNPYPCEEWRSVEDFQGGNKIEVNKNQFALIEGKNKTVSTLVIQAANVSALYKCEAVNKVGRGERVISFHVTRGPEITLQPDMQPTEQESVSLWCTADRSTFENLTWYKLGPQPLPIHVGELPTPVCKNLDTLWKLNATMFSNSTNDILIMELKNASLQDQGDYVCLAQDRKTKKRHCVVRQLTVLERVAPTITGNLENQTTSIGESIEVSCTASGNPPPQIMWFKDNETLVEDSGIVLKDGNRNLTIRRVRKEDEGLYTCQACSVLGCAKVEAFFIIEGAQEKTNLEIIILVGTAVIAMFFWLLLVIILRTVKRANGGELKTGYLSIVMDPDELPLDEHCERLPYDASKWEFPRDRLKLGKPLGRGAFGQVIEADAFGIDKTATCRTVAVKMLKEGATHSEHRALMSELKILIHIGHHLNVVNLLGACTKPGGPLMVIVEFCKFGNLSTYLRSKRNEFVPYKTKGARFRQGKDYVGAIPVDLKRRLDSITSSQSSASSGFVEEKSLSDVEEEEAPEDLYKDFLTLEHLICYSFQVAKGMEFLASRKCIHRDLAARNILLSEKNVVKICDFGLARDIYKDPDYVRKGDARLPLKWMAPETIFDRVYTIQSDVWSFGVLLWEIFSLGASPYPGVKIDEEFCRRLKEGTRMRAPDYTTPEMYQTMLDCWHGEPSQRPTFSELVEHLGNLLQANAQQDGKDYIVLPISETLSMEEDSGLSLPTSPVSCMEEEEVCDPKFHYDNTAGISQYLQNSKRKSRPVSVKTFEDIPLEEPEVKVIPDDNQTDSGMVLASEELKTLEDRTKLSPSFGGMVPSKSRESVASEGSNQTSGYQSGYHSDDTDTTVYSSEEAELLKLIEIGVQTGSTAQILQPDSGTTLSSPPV
Dual specificity testis-specific protein kinase 1 (Homo sapiens), sequence (Q15569 whole entry, looked up, the tested form may be a part): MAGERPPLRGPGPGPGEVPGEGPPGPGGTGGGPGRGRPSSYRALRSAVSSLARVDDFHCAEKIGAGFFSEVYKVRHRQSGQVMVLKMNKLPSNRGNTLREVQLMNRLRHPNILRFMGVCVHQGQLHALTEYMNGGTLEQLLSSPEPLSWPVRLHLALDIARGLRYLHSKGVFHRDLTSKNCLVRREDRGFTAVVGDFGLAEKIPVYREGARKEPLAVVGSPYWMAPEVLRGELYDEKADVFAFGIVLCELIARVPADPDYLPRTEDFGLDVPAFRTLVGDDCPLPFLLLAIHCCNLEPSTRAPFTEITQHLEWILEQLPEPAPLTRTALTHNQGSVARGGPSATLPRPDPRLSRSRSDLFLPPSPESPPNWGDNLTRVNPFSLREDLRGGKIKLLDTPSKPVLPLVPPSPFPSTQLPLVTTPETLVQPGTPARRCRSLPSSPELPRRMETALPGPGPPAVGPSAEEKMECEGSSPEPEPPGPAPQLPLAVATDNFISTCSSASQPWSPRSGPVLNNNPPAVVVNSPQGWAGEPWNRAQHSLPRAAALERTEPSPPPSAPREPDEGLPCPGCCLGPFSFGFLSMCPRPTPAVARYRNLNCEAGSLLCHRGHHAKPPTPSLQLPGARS

For `COc1cc(N2CCC(N3CCN(C)CC3)CC2)ccc1Nc1ncc2c(n1)N(C)c1ccccc1C(=O)N2C`, the inhibition was 100% in test [1]; 84% in test [2]; 100% in test [3]; 98% in test [4]; 100% in test [5]; 82% in test [6]. Also, the figures for the inhibition in test [7] and in test [8] were 80% and 18%, respectively.
`COc1cc(C(=O)N2CCC(N3CCN(C)CC3)CC2)ccc1Nc1ncc2c(n1)N(C1CCCC1)c1ccccc1C(=O)N2C`: the inhibition in test [1], in test [2], in test [3], in test [4], in test [5] and in test [6] was 100% each time. Also, the inhibition stood at 100% in test [7] and 35% in test [8].
Regarding `CCOc1cc(C(=O)N2CCC(N3CCN(C)CC3)CC2)ccc1Nc1ncc2c(n1)N(C1CCCC1)c1ccccc1C(=O)N2C`, the inhibition in test [1], in test [2], in test [3], in test [4], in test [5] and in test [6] was 100% in each case. Besides, the inhibition in test [7] came to 100%; in test [8], 80%.
